This passage reports melting point results from a melting point compilation (Tetko et al.).

SMILES strings stand for the structures.

The conditions of this data set: a range is the spread between reports.

For the compound `ClC1=C(Cl)[C@]2(Cl)[C@@H]3[C@@H]4C[C@@H]([C@H]5O[C@@H]45)[C@@H]3[C@@]1(Cl)C2(Cl)Cl`, the melting point (in general, the temperature, or range, at which the solid turns liquid) fell in the range of 175 to 176 °C.
`Cc1ccc(CO)cc1` showed a melting point of 59 to 61.5 °C.
Under `CCCCCOC(=O)CCC` stands -73.2 to -73 °C; under `CC12CCC(=O)C=C1CCC1C2CCC2(C)C1CCC2(C)O` (stereo unspecified), 163 to 164 °C; under `O=C1CCN(c2ccccc2)N1`, 122 to 126 °C.
Under `C=CCCCC` stands -140 °C; under `CCCCCCCCCCCC(C)O` (stereo unspecified), 23 to 25 °C; under `COC(=O)CCC(=O)O`, 57.5 to 58 °C.
Consider `NNC(=O)c1cccc(Br)c1`, for which the melting point was in the range of 156 to 158 °C.
As for `CCCCCCCC(C)O` (stereo unspecified), the melting point is -35.5 to -35 °C.
Under `O=C(O)C(=O)c1ccccc1` stands 65 to 66 °C; under `Cc1ccc([N+](=O)[O-])c(C)c1`, 6 to 9 °C.
Under `Nc1ccc([N+](=O)[O-])cc1[N+](=O)[O-]` stands 176 to 180 °C; under `CCCCOC(=O)CCC`, -92 to -91.5 °C; under `Nc1cc(Br)ccc1Br`, 51 to 54 °C.
Take `CC(=O)Nc1ccccc1[N+](=O)[O-]`: the melting point was 92 to 94 °C.
Under `NC(=O)c1ccccc1Br` stands 160 to 161 °C; under `CCCCCCCCCCCCCCCCCCCCCCCCCCCCCCCCCCCC`, 76 to 76.5 °C.
Under `CNC(=O)Oc1ccccc1OC(C)C` stands 90 to 91.5 °C; under `c1ccc(C(c2ccccc2)c2ccccc2)cc1`, 93 to 94 °C; under `CC(S)C(=O)O` (stereo unspecified), 11 to 12 °C.
Under `Clc1c(Cl)c(Cl)c(Cl)c(Cl)c1Cl` stands 228 to 232 °C; under `CCOCCOCCOCC`, -45 to -44 °C; under `Cc1cc2nc[nH]c2cc1C`, 204 to 206 °C.
`CCCCCCCCCCCCCCCCS` gave a melting point of 19 to 21 °C.
Consider `Nc1ccccc1N`, for which the melting point lay in the range of 101 to 102 °C.
Under `NCCO` stands 10 to 11 °C; under `O=C(CCl)c1ccc(Cl)cc1`, 101 to 102 °C; under `O=C(O)/C=C/c1ccccc1`, 133 to 135 °C.
Under `CC1=CC(=O)CC(C)(C)C1` stands -8.1 to -8 °C.
In turn, `O=C(OCc1ccccc1)c1ccccc1` gave a melting point of 18 to 21 °C.
Under `O=C1CSC(=O)N1` stands 125 to 128 °C.
As to `NC1CCCC1`, the melting point is -85.7 to -82.7 °C.
Under `CCCCC` stands -130 °C.
Take `Nc1c(Cl)cc(Cl)cc1Br`: the melting point fell in the range of 80 to 83.5 °C.
Compound `CC(C)(C)CO` had a melting point of 50 to 54 °C.
Under `CC(C)=CC(C)C` stands -128 °C; under `O=C1c2c(O)cccc2Cc2cccc(O)c21`, 179 to 181 °C; under `CCC(CC)C(C)C`, -115 °C.
In turn, `NNC=O` returned a melting point of 55 to 57 °C.
In the case of `NNC(=O)c1ccco1`, the melting point was 79 to 80 °C.
Under `SCc1ccc(Cl)cc1` stands 19 to 20 °C; under `O=C1CCCCC1=O`, 37 to 40 °C.
The compound `CCCCCCCCCCCCCCCCCCCCCCCC` came in with a melting point of 51 to 54 °C.
Under `COc1cc(C=O)ccc1O` stands 81.5 to 82 °C; under `Cc1cccc(O)c1`, 11 to 12 °C; under `Brc1ccc(Oc2ccc(Br)cc2)cc1`, 58 to 60.5 °C.
Under `CN(C)c1ccc(C=O)cc1` stands 74 to 75 °C; under `CC(=O)c1ccccc1C(=O)O`, 114 to 117 °C.
As for `ClC1c2ccccc2CCc2ccccc21`, the melting point fell in the range of 106 to 107 °C.
In turn, `OCCN(CCO)CCO` returned a melting point of 19.5 to 20.5 °C.
Under `C#CCC(C)C` stands -105 °C; under `O=[N+]([O-])c1cccc(S(=O)(=O)Cl)c1`, 60.9 to 61 °C.
Under `c1cc2c3c(c1)ccc1cccc(c13)C2` stands 114 to 116 °C; under `CC1CNCC(C)O1` (stereo unspecified), -88 to -85 °C.
On to `Cc1cc(-c2ccc(N)c(C)c2)ccc1N`, for which the melting point is 130 to 132 °C.
The compound `COC(=O)CS(=O)(=O)c1ccccc1` came in with a melting point of 30 to 35 °C.
Under `COC(=O)CCCCCCCCCCC(=O)OC` stands 30 to 31.9 °C; under `c1ccc(CN(Cc2ccccc2)Cc2ccccc2)cc1`, 91.5 to 93 °C; under `c1ccc(OCCOc2ccccc2)cc1`, 95 to 98 °C.
In turn, `CCCc1cc(O)nc(S)n1` yielded a melting point of 219 to 220 °C.
`O=CC1CCCCC1` displayed a melting point of 34.5 to 35 °C.
Under `CCCCCCCCCCCCCCCCCCCCCCO` stands 70 to 72.5 °C.
Under `O=C(O)Cc1cccc(O)c1` stands 130 to 132 °C; under `CC(=O)Nc1cccc(O)c1`, 146 to 148 °C.
Under `O=C(CBr)c1ccc(Br)cc1` stands 109 to 111 °C; under `CN1CCN(C2=Nc3cc(Cl)ccc3Nc3ccccc32)CC1`, 184 °C; under `C=C(C(=O)O)C(F)(F)F`, 50 to 51.5 °C.
The compound `O=C1OC(=O)C2C1C1(Cl)C(Cl)=C(Cl)C2(Cl)C1(Cl)Cl` (stereo unspecified) displayed a melting point of 233 to 237 °C.
Under `Cc1ccc(N)cc1Cl` stands 23 to 26 °C; under `COc1cc([N+](=O)[O-])ccc1N`, 140 to 141 °C; under `O=C(O)CCl`, 61.5 to 63 °C.
For `O=C(O)CCC(=O)c1ccccc1`, the melting point fell in the range of 117 to 118 °C.
The compound `CCCCNC(N)=O` yielded a melting point of 95 to 97 °C.
Under `Nc1cc(Cl)ccc1Cl` stands 48 to 50 °C; under `Nc1cc(Cl)ccc1O`, 140 to 143 °C; under `CC(C)(C)O`, 25 to 26 °C.
Under `CC(=O)CCC(=O)O` stands 29 to 33 °C; under `Cc1cc(C)c(C)c(C)c1C`, 54 to 54.5 °C; under `CCCCCCCCCCCCCCCCCC(=O)O`, 68 to 71 °C.
Under `C=C(CC)CC` stands -132 °C; under `O=C(c1ccc(O)cc1O)c1ccc(O)cc1O`, 201 to 202 °C; under `N#CSCSC#N`, 105 to 106 °C.
Compound `CC1CO1` (stereo unspecified) came in with a melting point of -112 °C.
Under `COc1ccc(C=O)c(C(=O)O)c1OC` stands 147 to 150 °C; under `COC(=O)c1ccc(O)cc1`, 127 to 131 °C; under `O=C(O)c1ccco1`, 130 to 134 °C.
In turn, `O=C(O)c1cc(-c2ccccc2)nc2ccccc12` gave a melting point of 214 to 215 °C.
As for `CCOP(=O)(OCC)OCC`, the melting point was -56.4 to -56 °C.
Under `C=C(C)CCCC` stands -103 °C; under `CCN1C(=O)C=CC1=O`, 44 to 45.5 °C.
The compound `Cc1cccc2c1ccc1cc(C(C)C)ccc12` registered a melting point of 99 to 101 °C.
On to `Clc1cc(Cl)c(Cl)c(Cl)c1`, for which the melting point lay within 51.5 to 55 °C.
Under `Clc1cccnc1Cl` stands 66 to 67 °C; under `COP(=O)(OC)OC(=CCl)c1cc(Cl)c(Cl)cc1Cl`, 96 to 97.5 °C; under `COc1ccc(N=C=S)cc1`, 18 to 19 °C.
Under `CC(Br)C(C)(Br)Br` (stereo unspecified) stands 1.8 to 2 °C.
Under `O=C(O)C(F)(F)Cl` stands 22 to 25 °C; under `C=Cc1ccc2ccccc2c1`, 65 to 66 °C.
The compound `O=C(O)CCCCC(=O)O` showed a melting point of 152 to 153 °C.
On to `N#Cc1cccc(O)c1`, for which the melting point was 79.5 to 82 °C.
Under `NC(=O)c1ccccc1[N+](=O)[O-]` stands 176 to 177 °C; under `ClCCOCCOCCCl`, -32 to -31.5 °C.
Regarding `Cc1ccc(C(C)C)cc1`, the melting point is -68.9 to -68 °C.
As to `CC(Br)C(Br)C(=O)O` (stereo unspecified), the melting point was 85 to 87 °C.
Under `c1ccc(-c2cnc(-c3ccccc3)o2)cc1` stands 72 to 74 °C; under `OCc1cccc(O)c1`, 71 to 73 °C; under `O=c1ccc2ccccc2o1`, 70 to 71 °C.
Under `CCCCOC` stands -116 to -115 °C.
Under `Cc1cc([N+](=O)[O-])ccc1N` stands 132 to 134 °C; under `O=C(O)c1c(F)cc(F)cc1F`, 141 to 143 °C.
On to `O=[N+]([O-])c1ccc2c3c(cccc13)CC2`, for which the melting point lay in the range of 103 to 104 °C.
`ClC(Cl)=C(Cl)Cl` showed a melting point of -22.3 to -22 °C.
`Nc1ccccc1C(F)(F)F`: the melting point was -34 to -29 °C.
Compound `N#Cc1c(F)c(F)c(F)c(F)c1F` yielded a melting point of 2 to 2.4 °C.
Regarding `CC(C)C(=O)OC(=O)C(C)C`, the melting point is -56 to -53.5 °C.
Compound `O=C(O)c1ccccc1[N+](=O)[O-]` gave a melting point of 146 to 148 °C.
Under `OC(CCN1CCCCC1)(c1ccccc1)C1CCCCC1` (stereo unspecified) stands 114 to 115 °C; under `Brc1cccc2ccccc12`, -1.8 to -1 °C; under `O=S(c1ccccc1)c1ccccc1`, 70 to 71.2 °C.
Under `N#CSCc1ccccc1` stands 42 to 43 °C; under `CC(=O)C(C)C`, -93.1 to -92 °C; under `O=[N+]([O-])c1cccc(CBr)c1`, 58 to 59.3 °C.
Under `Cc1c(N)c(=O)n(-c2ccccc2)n1C` stands 107 to 109 °C.
Compound `CC(=O)c1ccc(Br)cc1` had a melting point of 50.5 to 51 °C.
Compound `Cc1ccc(C(=O)Cl)cc1` gave a melting point of -3 to -2 °C.
`O=C(O)C(Cl)Br` (stereo unspecified) had a melting point of 27 to 31.5 °C.
`COc1cccc(C(N)=O)c1`: the melting point lay within 133 to 134 °C.
Under `CI` stands -67 to -64 °C; under `COP(=S)(OC)Oc1ccc(SC)c(C)c1`, 7 to 7.5 °C; under `Nc1cccc(C(F)(F)F)c1`, 5.5 to 6 °C.
The compound `CC(=O)CCC=C(C)C` came in with a melting point of -67.1 to -67 °C.
Under `O=C(O)C(Cl)(Cl)Cl` stands 56 to 57.5 °C.
As to `N#Cc1ccc(Cl)cc1`, the melting point lay within 92 to 95 °C.
Take `C=CCCCCCCCC`: the melting point is -66.3 to -66 °C.
Under `Cc1cccc(C)c1N` stands 8 to 12 °C; under `O=c1[nH]c2ccccc2o1`, 138 to 140 °C.
Under `NC(=O)CI` stands 93.5 to 94.5 °C; under `C=CCCC`, -165 to -162 °C; under `Nc1ccccn1`, 57.5 to 58 °C.
On to `CCC=O`, for which the melting point was -81 to -80 °C.
